Reference: patent US20190291112A1, “DROPLET MICROFLUIDICS FOR DRUG SCREENING” (University of Macau, priority 2018, published 2019)

Columns and labels:
cancer cell lines = assay: Carrier fluid and surfactant optimization, cell viability on chip; type: cell-based; conditions: surfactant, all tested concentrations
Source text: Firstly, we optimized the carrier fluid or oil phase to assure cell viability on chip for a minimum of 7 days for cancer cell lines. Commercial oils including Fluorinert® series oils, e.g. fluorocarbon oils, silicone oil, and mineral oil in combination with different surfactants (either mixed with oil phase or aqueous phase) at various concentrations have been tested. Among these, Fluorinert® FC-40 supplemented with 2% 008-Fluorosurfactant by Ran Biotechnologies provided optimal properties in terms of viscosity, volatility and droplet stability. Fluorosurfactant was added to prevent droplets from coalescence and cross-contamination of droplet contents when they touched each other (FIG. 6A). In addition, fluorosurfactant-emulsified droplets prevented fluorescent dye from adsorbing to the hydrophobic PDMS walls of the channel (FIG. 6B) or migrating into the oil phase (FIGS. 6C and 6D), in order to maintain constant drug concentrations in droplets. […] Droplets containing red fluorescent dye were incubated at 37° C. for 15 h, but no trace of fluorescent dye was observed along the PDMS walls as the droplet shrank due to evaporation. […]

MDA-MB-231 cells [1] = assay: On chip drug screening assay (ethidium homodimer 1 staining); type: cell-based, human; conditions: for IC50: Homo sapiens
Procedure: (§1) Jurkat E6.1 cells (ATCC® TIB-152™) and MDA-MB-231 cells (ATCC® HTB-26™) were used as models for suspended and adherent cancer cell lines respectively. Jurkat cell line was derived from human acute T cell leukemia, whereas MDA-MB-231 cell line was derived from human metastatic breast adenocarcinoma.
On chip drug screening was performed using the PDMS-based microfluidic chip as described above. A 500 μL glass syringe (Hamilton, USA) and polytetrafluoroethylene (PTFE) tubings with appropriate bore (Cole Parmer, USA) was used to connect between the syringe pump (Harvard Apparatus PHD Ultra Syringe Pump, USA) and the microfluidic chip. Fluorinert® FC-40 (Sigma-Aldrich, USA) supplemented with 2% 008-Fluorosurfactant (Ran Biotechnologies, USA) was used as oil phase; relevant cell culture medium, supplemented with 1% (w/v) methyl cellulose (Sigma-Aldrich, USA) was used as aqueous phase. Cells treated with 0.1% dimethyl sulfoxide (DMSO) were used as negative control.
Briefly, cells at final concentrations of 1-2×10^6 cells per mL were aliquoted in 0.2 mL PCR tubes, then mixed with corresponding drugs and 2 μM ethidium homodimer 1 (Life Technologies, USA) by manual pipetting. Next, […], cell-drug mixtures were loaded into the tubing, consecutively segregated by oil phase at withdrawal rate of 200 μL/h by syringe pump. After loading all mixtures, the tubing was inserted into the microfluidic chip, which was back-flushed with oil phase at 500 μL/h by syringe pump. After that, the mixtures were infused at 25 μL/h by syringe pump. Finally, the inlet and outlet tubings were cut and sealed with Vaseline (Vaseline, USA). The chips were placed in 150 mm cell culture dish (Coming, USA) containing wet paper towels, and transferred to humidified incubator at 37° C. supplemented with 5% CO2 for 16-24 h incubation. Brightfield and red fluorescence images (Ex. 531/40 nm, Em. 593/40 nm) were taken under 10× magnification (Life Technologies EVOS FL Imaging System, USA).
For on chip assays, brightfield and red fluorescence images were initially processed by ImageJ v.1.50i, Cell counting was either performed manually or by Matlab v.R201.5a based on the workflow shown on FIG. 5B. Briefly, cells from brightfield and red fluorescence images were detected separately using a heuristic Hough Transformation model based on threshold implementation on circular diameter and pixel intensity. Next, each recognized cell was dissected into 10×10 pixels matrix for analysis of its pixel intensity. Subsequently, two layers of multi-radii analysis of pixel intensity around the center of each matrix distinguished signal from noise. Afterwards, cells were distinguished from noise based on the brightfield image, whereas cell viability was determined by signal intensity of corresponding red fluorescence image. Finally, positional information (defined by row: x, and column: y) and size (defined by radius: r) of discrete image matrix was used to classify each cell as “live” or “dead”. The total number of cells in each image corresponding to each droplet formation well on chip was summarized as a table in CSV format for calculation of cell viability. […]
For on chip assays, the number of cells was counted in brightfield and red fluorescence images from each well respectively. Cell viability was calculated as follows: […]
where Total cells and Dead cells referred to the total number of cells counted from brightfield and red fluorescence images, respectively. […]

Jurkat cells [2] = assay: as above; type: cell-based, human
Procedure: Jurkat E6.1 cells (ATCC® TIB-152™) and MDA-MB-231 cells (ATCC® HTB-26™) were used as models for suspended and adherent cancer cell lines respectively. Jurkat cell line was derived from human acute T cell leukemia, whereas MDA-MB-231 cell line was derived from human metastatic breast adenocarcinoma. On chip drug screening was performed using the PDMS-based microfluidic chip as described above. A 500 μL glass syringe (Hamilton, USA) and polytetrafluoroethylene (PTFE) tubings with appropriate bore (Cole Parmer, USA) was used to connect between the syringe pump (Harvard Apparatus PHD Ultra Syringe Pump, USA) and the microfluidic chip. Fluorinert® FC-40 (Sigma-Aldrich, USA) supplemented with 2% 008-Fluorosurfactant (Ran Biotechnologies, USA) was used as oil phase; relevant cell culture medium, supplemented with 1% (w/v) methyl cellulose (Sigma-Aldrich, USA) was used as aqueous phase. Cells treated with 0.1% dimethyl sulfoxide (DMSO) were used as negative control. […] Next, […], cell-drug mixtures were loaded into the tubing, consecutively segregated by oil phase at withdrawal rate of 200 μL/h by syringe pump. After loading all mixtures, the tubing was inserted into the microfluidic chip, which was back-flushed with oil phase at 500 μL/h by syringe pump. After that, the mixtures were infused at 25 μL/h by syringe pump. Finally, the inlet and outlet tubings were cut and sealed with Vaseline (Vaseline, USA). […] Brightfield and red fluorescence images (Ex. 531/40 nm, Em. 593/40 nm) were taken under 10× magnification (Life Technologies EVOS FL Imaging System, USA). […] For on chip assays, the number of cells was counted in brightfield and red fluorescence images from each well respectively.

MDA-MB-231 cells [3] = assay: 384-well microtiter plate drug screening assay (Alamar Blue); type: cell-based, human; conditions: 384-well plate
Procedure: as §1
(§2) Microtiter plate drug screening assays were carried out on 96-well clear round flat-bottom plates (Corning, USA) or 384-well white square flat-bottom plates (Corning, USA).
(§3) First, 5.0×10^5 or 1.0×10^5 cells were seeded per well for 96-well and 384-well plates respectively. Drugs were diluted with Dulbecco's phosphate-buffered saline (DPBS) (Life Technologies, USA), and subsequently added to achieve final drug concentrations as indicated on the graphs. Afterwards, the plates were transferred to humidified incubator at 37° C. supplemented with 5% CO2 for 16-24 h incubation. Finally, Alamar Blue assay was used to measure cell viability. Fluorescence intensity (Ex. 560 nm, Em. 590 nm) using auto-cutoff was measured from bottom on plate reader (Molecular Devices SpectraMax MS Plate Reader, USA). Cells treated with 0.1% dimethyl sulfoxide (DMSO) were used as negative control, while no cells were added to blank control. All experiments were performed in triplicate for 96-well plates and in quadruplicates for 384-well relates.
(§4) For microliter plate assays, average relative fluorescence signal measured by plate reader from 6 reads of each well was used as raw data point. Cell viability was calculated as follows: […]
(§5) where Sample represented raw data points of each sample well, whereas DMSO control and Blank represented average raw data points of all DMSO control and Blank wells, respectively.

Jurkat cells [4] = assay: as above; type: cell-based, human; conditions: 384-well plate
Procedure: as §1, §2, §3, §4, §5

MDA-MB-231 cells [5] = assay: 96-well microtiter plate drug screening assay (Alamar Blue); type: cell-based, human; conditions: 96-well plate
Procedure: as §1, §2, §3, §4, §5

Jurkat cells [6] = assay: as above; type: cell-based, human; conditions: 96-well plate
Procedure: as §1, §2, §3, §4, §5

cells = assay: Time-lapse imaging of cells incubated with viability indicator dye; type: cell-based; conditions: 2 μM, within 48 h post-treatment
Procedure: Thirdly, different cell viability indicator dyes were tested for staining efficiency, indicator reliability and cytotoxicity on chip. Since the sample fluid was premixed before loading to the chip, we tested for different cell viability indicator dyes and variant concentrations to ensure that the indicator dye had no impact on cell viability, at least within the time frame of the drug susceptibility test. Eventually, ethidium homodimer 1 staining was adopted to indicate dead cells. Ethidium homodimer 1 is a cell-impermeable, high affinity nucleic acid stain emitting strong red fluorescence after binding to DNA. It gave strong red fluorescence after cells were treated with drug but not DMSO) (FIG. 12).

Triton X-100 was tested, and the “effect on cell viability” value (cancer cell lines) was “compromised cell viability”.

For `COc1cccc2c1C(=O)c1c(O)c3c(c(O)c1C2=O)C[C@@](O)(C(=O)CO)C[C@@H]3O[C@H]1C[C@H](N)[C@@H](O)[C@H](C)O1` [epirubicin], the IC50 (MDA-MB-231 cells [1]) was 5500 nM, the “cell viability leveled off” value (MDA-MB-231 cells [1]; after reaching IC50) was “approximately 50%” and the IC50 (Jurkat cells [2]; Homo sapiens, 16-24 h) was 1000 to 2200 nM. The IC50 (MDA-MB-231 cells [3]; Homo sapiens) was 500 nM, the IC50 (Jurkat cells [4]; Homo sapiens, 16-24 h) was 1000 to 2200 nM and the IC50 (MDA-MB-231 cells [5]; Homo sapiens) was 600 nM. It also gave an IC50 (Jurkat cells [6]; Homo sapiens, 16-24 h) of 1000 to 2200 nM.

With `CCCCCCCCCCCCOS(=O)(=O)[O-].[Na+]` [sodium dodecyl sulfate] the “effect on cell viability” value (cancer cell lines) was “compromised cell viability”.

For `O=C(CCCCCCC(=O)Nc1ccccc1)NO` [vorinostat], the IC50 (MDA-MB-231 cells [1]) was 33300 nM, the cell viability plateau (Jurkat cells [2]; all doses tested) was “above 50%” and the cell viability plateau (MDA-MB-231 cells [3]) was “above 50%”. For the same compound, the cell viability plateau (Jurkat cells [4]; all doses tested) was “above 50%”, the cell viability plateau (MDA-MB-231 cells [5]) was “above 50%” and the cell viability plateau (Jurkat cells [6]; all doses tested) was “above 50%”.

For ethidium homodimer 1, the “effect on cell death and proliferation” value (cells) was “did not affect cell death and proliferation”.
